Reference: patent US10695337B2, “Piperidin-4-yl azetidine derivatives as JAK1 inhibitors” (Incyte Corporation, priority 2010, dated 2020)

molecular target: human JAK1 (a.a. 837-1142); assay: In vitro JAK kinase assay (HTRF, phosphorylation of a biotinylated peptide), JAK1; assay type: biochemical; conditions: measured at 1 mM ATP; JAK2 IC50 / JAK1 IC50
Outline: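 N-terminally His-tagged catalytic domains, baculovirus-expressed in insect cells and purified, were used as enzyme. Reactions ran 1 hr at room temperature and were stopped with a mix of 45 mM EDTA, 300 nM SA-APC and 6 nM Eu-Py20. The HTRF signal was read after 40 min of antibody binding.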

Point of comparison: N#CCC1(n2cc(-c3ncnc4[nH]ccc34)cn2)CN(C2CCN(C(=O)Cc3ccccc3)CC2)C1 [Example 109, {1-[1-(phenylacetyl)piperidin-4-yl]-3-[4-(7H-pyrrolo[2,3-d]pyrimidin-4-yl)-1H-pyrazol-1-yl]azetidin-3-yl} acetonitrile], “IC50 Ratio JAK2/JAK1” value 1.1. Against it:
- N#CCC1(n2cc(-c3ncnc4[nH]ccc34)cn2)CN(C2CCN(C(=O)c3cc4c(C(F)(F)F)cccc4s3)CC2)C1 [Example 93, [3-[4-(7H-pyrrolo[2,3-d]pyrimidin-4-yl)-1H-pyrazol-1-yl]-1-(1-{[4-(trifluoromethyl)-1-benzothien-2-yl]carbonyl}piperidin-4-yl)azetidin-3-yl]acetonitrile] — higher, 1.5
- CC1(COC(=O)N2CCC(N3CC(CC#N)(n4cc(-c5ncnc6[nH]ccc56)cn4)C3)CC2)CC1 [Example 392, (1-methylcyclopropyl)methyl 4-{3-(cyanomethyl)-3-[4-(7H-pyrrolo[2,3-d]pyrimidin-4-yl)-1H-pyrazol-1-yl]azetidin-1-yl}piperidine-1-carboxylate] — higher, 5.6
- COc1ccccc1NC(=O)N1CCC(N2CC(CC#N)(n3cc(-c4ncnc5[nH]ccc45)cn3)C2)CC1 [Example 180, 4-{3-(cyanomethyl)-3-[4-(7H-pyrrolo[2,3-d]pyrimidin-4-yl)-1H-pyrazol-1-yl]azetidin-1-yl}-N-(2-methoxyphenyl)piperidine-1-carboxamide] — higher, 4.0
- N#CCC1(n2cc(-c3ncnc4[nH]ccc34)cn2)CN(C2CCN(C(=O)c3ccc(-c4ccc5nccn5c4)c(F)c3)CC2)C1 [Example 135, {1-[1-(3-fluoro-4-imidazo[1,2-a]pyridin-6-ylbenzoyl)piperidin-4-yl]-3-[4-(7H-pyrrolo[2,3-d]pyrimidin-4-yl)-1H-pyrazol-1-yl]azetidin-3-yl} acetonitrile] — higher, 7.1
- N#CCC1(n2cc(-c3c(C#N)cnc4[nH]ccc34)cn2)CN(C2CCN(C(=O)c3cc(Br)cc(Br)c3)CC2)C1 [Example 336] — higher, 2.9
- N#CCC1(n2cc(-c3ncnc4[nH]ccc34)cn2)CN(C2CCN(Cc3cc(C(F)(F)F)ccc3Cl)CC2)C1 [Example 211, {1-{1-[2-chloro-5-(trifluoromethyl)benzyl]piperidin-4-yl}-3-[4-(7H-pyrrolo[2,3-d]pyrimidin-4-yl)-1H-pyrazol-1-yl]azetidin-3-yl}acetonitrile] — higher, 5.0
- N#CCC1(n2cc(-c3ncnc4[nH]ccc34)cn2)CN(C2CCN(C(=O)c3cccc(C#N)c3)CC2)C1 [Example 11, 3-[(4-{3-(cyanomethyl)-3-[4-(7H-pyrrolo[2,3-d]pyrimidin-4-yl)-1H-pyrazol-1-yl]azetidin-1-yl}piperidin-1-yl)carbonyl]benzonitrile] — higher, 7.2
- CN(C)Cc1cc(C(=O)N2CCC(N3CC(CC#N)(n4cc(-c5ncnc6[nH]ccc56)cn4)C3)CC2)nc(C(F)(F)F)n1 [Example 370, {1-(1-{[6-[(dimethylamino)methyl]-2-(trifluoromethyl)pyrimidin-4-yl]carbonyl}piperidin-4-yl)-3-[4-(7H-pyrrolo[2,3-d]pyrimidin-4-yl)-1H-pyrazol-1-yl]azetidin-3-yl}acetonitrile] — higher, 55
- N#CCC1(n2cc(-c3ncnc4[nH]ccc34)cn2)CN(C2CCN(Cc3c(F)cccc3C(F)(F)F)CC2)C1 [Example 213, {1-{1-[2-fluoro-6-(trifluoromethyl)benzyl]piperidin-4-yl}-3-[4-(7H-pyrrolo[2,3-d]pyrimidin-4-yl)-1H-pyrazol-1-yl]azetidin-3-yl}acetonitrile] — higher, 9.7
- N#CCC1(n2ccc(-c3ncnc4[nH]ccc34)c2)CN(C2CCN(C(=O)c3cccs3)CC2)C1 [Example 271, {3-[3-(7H-pyrrolo[2,3-d]pyrimidin-4-yl)-1H-pyrrol-1-yl]-1-[1-(2-thienylcarbonyl)piperidin-4-yl]azetidin-3-yl}acetonitrile] — higher, 7.8
